Results published in ChEMBL document CHEMBL2034827, “Identification of novel antimalarial chemotypes via chemoinformatic compound selection methods for a high-throughput screening program against the novel malarial target, PfNDH2: increasing hit rate via virtual screening methods” (J Med Chem, 2012).
pIC50: −log10 of the molar value.

How the values were obtained:
[1] = Inhibition of recombinant Plasmodium falciparum NDH2 expressed in Escherichia coli ANN0222 by spectrophotometry
Plasmodium falciparum = test: Antimalarial activity against blood stage form of Plasmodium falciparum 3D7 infected in human erythrocytes after 48 hrs by SYBR Green-based fluorometry; type: functional, organism-based; settings: 3D7, 48 h

| Compound | pIC50 [1] | pIC50 (Plasmodium falciparum) |
| --- | --- | --- |
| CC(C)(Cc1cc(=O)c2ccccc2[nH]1)C1CCCCC1 | 7.11 | 5.42 |
| CCn1cc(C(=O)NCc2ccc(Cl)cc2)c(=O)c2cc(F)c(N3CCN(C(=O)c4ccco4)CC3)cc21 | 6.53 | 5.30 |
| O=C1NC(=O)N(C2CCCCC2)C(=O)/C1=C/c1c(-c2ccccc2)[nH]c2ccccc12 | 6.29 | 5.25 |
| CSc1nc2cc(Oc3ccc(Cl)c4ccccc34)c(Cl)cc2[nH]1 | 5.98 | 5.68 |
| O=C(Nc1ccc(F)c(F)c1)C1CCC(Cn2cnc3ccccc3c2=O)CC1 (stereo unspecified) | 5.87 | 5.68 |
| CCCCCCCCCCCCc1cc(=O)c2ccccc2n1O | 7.15 | – |
